From patent publication US12138232B2, “Compounds for treating coronavirus infection” (priority 2020, dated 2024)

Experiments:
[1] = molecular target: T1, 3CL protease of SARS-coronavirus 2 (Severe acute respiratory syndrome coronavirus 2, UniProt P0DTD1); assay: 3CL protease fluorescent assay based on commercial kit (BPS cat. 79955-1); format: biochemical; conditions: for Activity (RFU/minute): mean ± standard deviation, 0 μM: 743.7 ± 20.6
T1 construct: purchased BPS 79955-1
Procedure: Inhibition of the activity of 3CL protease of SARS-coronavirus 2 (the coronavirus associated with COVID-19) was determined by an assay based on commercial kit (BPS cat. 79955-1). […] The reaction was initiated by addition of 50 μl of 50 μM kit substrate (25 μM final concentration), and then fluorescence was monitored (at 340 nm excitation wavelength, 510 nm emission wavelength) using a CLARIOstar® Plus plate reader (BMG Labtech). The 3CL protease activity was quantified as relative fluorescent units (RFU) per minute.

[2] = based on literature reports; cited from earlier work

CC(C)=CCC(O)C1=CC(=O)c2c(O)ccc(O)c2C1=O (stereo not drawn) [Shikonin, 5,8-dihydroxy-2-(1-hydroxy-4-methylpent-3-en-1-yl)naphthalene-1,4-dione]
Activity (RFU/minute) ([1]; 0.1 μM shikonin): 653.8 ± 28.1 RFU/minute | Activity (RFU/minute) ([1]; 1 μM shikonin): 680.1 ± 34.3 RFU/minute | Activity (RFU/minute) ([1]; 10 μM shikonin): 425.0 ± 7.8 RFU/minute | inhibition of 3CL protease ([1]; 100 μM shikonin): almost complete inhibition | Activity (RFU/minute) ([1]; 100 μM shikonin): 2.9 ± 18.4 RFU/minute | dosages at which toxicity is not expected [2]: less than 8 grams per day
